The text below walks through data of article PMC9474705 (British journal of pharmacology, 2022).

Test [1] deals with β2AR (β2AR stable cells) (Homo sapiens, UniProt P07550). Put plainly: [3H]DHA competition on membranes. Format: binding.
The target of test [2] is β2AR-RlucII (Homo sapiens, UniProt P07550). Put plainly: BRET Gs. The format is cell-based. The conditions noted are these: agonist, […] min, mini-Gs. For orientation: Bioluminescence resonance energy transfer reports proximity on the nanometre scale.
Chain of β2AR-RlucII (P07550 whole entry): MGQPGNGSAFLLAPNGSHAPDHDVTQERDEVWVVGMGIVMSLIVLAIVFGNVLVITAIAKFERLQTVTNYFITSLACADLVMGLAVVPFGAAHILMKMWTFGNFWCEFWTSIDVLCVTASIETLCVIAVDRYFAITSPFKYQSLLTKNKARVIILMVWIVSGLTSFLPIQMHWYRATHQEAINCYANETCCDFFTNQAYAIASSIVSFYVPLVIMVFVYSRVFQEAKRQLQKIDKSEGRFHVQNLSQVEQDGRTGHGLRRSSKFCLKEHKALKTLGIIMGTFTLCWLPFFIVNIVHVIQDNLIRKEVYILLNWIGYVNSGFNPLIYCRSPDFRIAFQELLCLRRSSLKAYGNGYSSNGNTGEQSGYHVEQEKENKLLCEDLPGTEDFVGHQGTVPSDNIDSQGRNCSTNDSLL
The target of test [3] is β1AR-RlucII (Homo sapiens, UniProt P08588). Description: BRET Gs. The conditions noted are these: agonist, […] min, mini-Gs. Format: cell-based.
Chain of β1AR-RlucII (P08588 whole entry): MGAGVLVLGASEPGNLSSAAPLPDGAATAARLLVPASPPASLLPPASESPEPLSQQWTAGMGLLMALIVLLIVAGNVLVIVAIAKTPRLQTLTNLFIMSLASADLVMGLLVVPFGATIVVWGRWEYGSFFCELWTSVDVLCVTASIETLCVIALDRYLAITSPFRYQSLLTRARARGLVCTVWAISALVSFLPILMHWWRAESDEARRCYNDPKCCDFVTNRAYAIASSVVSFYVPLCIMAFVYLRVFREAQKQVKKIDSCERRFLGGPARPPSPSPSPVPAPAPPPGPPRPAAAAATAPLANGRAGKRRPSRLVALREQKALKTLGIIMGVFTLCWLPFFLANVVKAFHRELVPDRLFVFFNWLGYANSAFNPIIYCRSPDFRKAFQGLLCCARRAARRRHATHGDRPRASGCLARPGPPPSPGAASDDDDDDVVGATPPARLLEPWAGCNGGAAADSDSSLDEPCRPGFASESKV

Structures are written as SMILES.

Chain of β2AR (β2AR stable cells) (P07550 whole entry): as the sequence (P07550 whole entry) above

One may read the IC50 as the point on the concentration scale where inhibition reaches its midpoint. A low value points to greater potency. For the compound `CCCCNCC(O)c1ccc(O)cc1` (stereo not shown) [Bamethane], the IC50 in test [1] is 31.6 µM. The EC50 entry in test [2] was “all compounds showed efficacy in recruiting Gαs to the receptor”.
`CC(CCc1ccccc1)NC(C)C(O)c1ccc(O)cc1` (stereo not shown) [Buphenine] gave an IC50 in test [1] of 0.251 µM.
On to `CC(CCc1ccc(O)cc1)NCCc1ccc(O)c(O)c1` (stereo not shown) [Dobutamine], for which the IC50 in test [1] was 5.01 µM. In addition, in test [3], the EC50 result is “DOB was slightly more efficacious for β1AR”.
With `Oc1ccc(CC2NCCc3cc(O)c(O)cc32)cc1` (stereo not shown) [Higenamine], the IC50 in test [1] was 5.01 µM.
Still for that read-out and setting: the same measure for `CC(NCCc1ccc(O)cc1)C(O)c1ccc(O)cc1` (stereo not shown) [Ritodrine]: 1.26 µM.
